The text below walks through data of ChEMBL document CHEMBL4680375 (ACS Med Chem Lett, 2021).

Test [1] deals with T1, NAD-dependent protein deacetylase sirtuin-1 (Homo sapiens, UniProt Q96EB6).
T1 sequence (Q96EB6 whole entry): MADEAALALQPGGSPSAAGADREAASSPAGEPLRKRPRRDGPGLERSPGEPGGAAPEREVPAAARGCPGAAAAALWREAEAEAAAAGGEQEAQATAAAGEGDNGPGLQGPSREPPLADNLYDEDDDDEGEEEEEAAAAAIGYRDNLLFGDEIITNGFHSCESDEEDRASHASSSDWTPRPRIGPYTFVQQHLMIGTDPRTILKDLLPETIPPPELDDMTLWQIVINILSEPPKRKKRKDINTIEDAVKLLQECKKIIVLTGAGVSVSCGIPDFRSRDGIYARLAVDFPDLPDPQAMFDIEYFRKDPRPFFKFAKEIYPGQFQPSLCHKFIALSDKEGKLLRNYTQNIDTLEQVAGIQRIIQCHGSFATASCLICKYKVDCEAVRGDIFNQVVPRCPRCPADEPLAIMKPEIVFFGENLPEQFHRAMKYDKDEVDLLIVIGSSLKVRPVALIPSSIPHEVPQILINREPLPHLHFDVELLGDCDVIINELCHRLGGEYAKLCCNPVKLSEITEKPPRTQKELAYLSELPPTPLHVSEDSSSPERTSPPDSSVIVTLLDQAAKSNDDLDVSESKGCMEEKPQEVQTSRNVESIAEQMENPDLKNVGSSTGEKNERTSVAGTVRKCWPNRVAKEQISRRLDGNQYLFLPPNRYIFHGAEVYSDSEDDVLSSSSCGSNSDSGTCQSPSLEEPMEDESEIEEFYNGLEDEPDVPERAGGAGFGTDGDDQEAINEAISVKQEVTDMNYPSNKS
Description: Inhibition of N-terminal hexa-His-tagged human SIRT1 (156 to 664 residues) expressed in Escherichia coli BL21 (DE3) assessed as deacetylation of Abz-labeled acetyl peptide using Abz-GVLKacAYNO2GY-NH2 peptide as substrate incubated for 30 mins in presence of NAD+ by fluorescence microplate reader assay.

Test [2] concerns the target T2, NAD-dependent protein deacetylase sirtuin-2 (Homo sapiens, UniProt Q8IXJ6).
T2 sequence (Q8IXJ6 whole entry): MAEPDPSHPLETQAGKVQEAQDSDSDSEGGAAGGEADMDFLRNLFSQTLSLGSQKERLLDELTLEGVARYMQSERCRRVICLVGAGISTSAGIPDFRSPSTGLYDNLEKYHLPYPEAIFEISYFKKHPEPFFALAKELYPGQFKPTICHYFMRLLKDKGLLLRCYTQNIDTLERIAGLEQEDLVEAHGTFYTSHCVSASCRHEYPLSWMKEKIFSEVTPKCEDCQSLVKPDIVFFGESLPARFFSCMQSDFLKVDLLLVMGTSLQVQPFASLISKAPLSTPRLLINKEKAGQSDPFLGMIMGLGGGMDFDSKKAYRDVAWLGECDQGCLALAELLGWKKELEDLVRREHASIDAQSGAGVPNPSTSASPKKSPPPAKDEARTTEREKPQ
Briefly: Inhibition of GST-fusion tagged human SIRT2 (34 to 356 residues) expressed in Escherichia coli BL21 (DE3) using Abz-GVLKacAYNO2GY-NH2 peptide as substrate incubated for 30 mins in presence of NAD+ by fluorescence microplate reader assay.

For test [3], the target named is NAD-dependent protein deacylase sirtuin-6 (Homo sapiens, UniProt Q8N6T7). Description: Inhibition of recombinant N-terminal hexa-His-tagged SIRT6 (3 to 318 residues) (unknown origin) expressed in Escherichia coli BL21 (DE3) using RHKKac-AMC as substrate incubated for 2 hrs in presence of NAD+ by fluorescence microplate reader assay.
Test [4] deals with NAD-dependent protein deacylase sirtuin-5, mitochondrial (Homo sapiens, UniProt Q9NXA8). Briefly: Inhibition of N-terminal 8His-tagged human SIRT5 (34 to 302 residues) expressed in Escherichia coli Rosetta2 (DE3) using Abz-GVLKacAYNO2GY-NH2 peptide as substrate incubated for 30 mins in presence of NAD+ by fluorescence microplate reader assay.
Test [5] addresses T3, NAD-dependent protein deacetylase sirtuin-1 (Homo sapiens) (UniProt Q96EB6).
T3 sequence (whole entry): T1 sequence (Q96EB6 whole entry)
Description: Inhibition of SIRT1 in human SH-SY5Y cells assessed as increase in acetylated p53 level at 10 uM measured after 72 hrs in presence of ATRA by Western blot analysis. Type of test: cell-based.

Test [6] deals with T3, NAD-dependent protein deacetylase sirtuin-1 (Homo sapiens). Briefly: Inhibition of SIRT1 in human SH-SY5Y cells assessed as increase in ratio of acetylated p53 to p53 level by Western blot analysis. In kind it is cell-based. The note with it: dose 0.1-50 µM.
For test [7] the target is unchanged. Briefly: Inhibition of SIRT1 in human SH-SY5Y cells assessed as increase in acetylated p53 level at 10 uM by Western blot analysis. In kind it is cell-based.

The source made the active and inactive calls. No cut-off for these calls is given here.

Chain of NAD-dependent protein deacylase sirtuin-5, mitochondrial (Q9NXA8 whole entry, the tested form may be a part): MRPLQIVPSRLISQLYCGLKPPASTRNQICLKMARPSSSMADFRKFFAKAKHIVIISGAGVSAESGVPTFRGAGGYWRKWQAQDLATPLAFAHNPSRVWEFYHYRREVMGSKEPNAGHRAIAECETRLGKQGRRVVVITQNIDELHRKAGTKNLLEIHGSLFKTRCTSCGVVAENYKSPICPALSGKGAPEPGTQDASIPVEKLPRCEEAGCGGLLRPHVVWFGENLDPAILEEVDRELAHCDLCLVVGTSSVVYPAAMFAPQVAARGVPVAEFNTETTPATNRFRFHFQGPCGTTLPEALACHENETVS
Chain of NAD-dependent protein deacylase sirtuin-6 (Q8N6T7 whole entry, the tested form may be a part): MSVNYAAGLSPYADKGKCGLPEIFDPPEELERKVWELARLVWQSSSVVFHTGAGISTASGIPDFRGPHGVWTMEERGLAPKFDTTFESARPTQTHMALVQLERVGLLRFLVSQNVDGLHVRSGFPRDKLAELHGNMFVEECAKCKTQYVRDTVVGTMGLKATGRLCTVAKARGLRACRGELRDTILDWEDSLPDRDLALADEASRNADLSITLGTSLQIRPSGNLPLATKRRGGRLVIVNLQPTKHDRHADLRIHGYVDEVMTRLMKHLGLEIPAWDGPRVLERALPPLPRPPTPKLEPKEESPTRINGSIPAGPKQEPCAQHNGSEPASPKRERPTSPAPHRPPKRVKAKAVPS

On to `O=C1OC(c2ccccc2)OC(=O)C1=Cc1ccc(O)c(Cl)c1` (stereo not given), for which, in test [1] (read-out: IC50), the IC50 came to 3.84 µM.
Same read-out and setting: the result for `O=C1OC(c2ccccc2)OC(=O)C1=Cc1cc(Br)c(O)c(OCc2ccccc2)c1` (stereo not given) reads 0.68 µM.
Turning to `O=C1OC(c2ccccc2)OC(=O)C1=Cc1cc(Cl)c(O)c(Cl)c1` (stereo not given), the IC50 in test [2] is 56.4 µM; in test [1] (read-out: IC50) it was 1.2 µM; in test [3] it was “Not Active”; in test [4] (read-out: IC50) it was 37.4 µM. For the same compound, the “increase in acetylated p53 level (qualitative)” value (shortened to “increase in acetylated p53 level”) in test [5] was “Active”.
Turning to `CC(C)(C)c1cc(C=C2C(=O)OC(c3ccccc3)OC2=O)cc(C(C)(C)C)c1O` (stereo not given), the IC50 in test [1] (read-out: IC50) came to 19 µM.
On to `O=C1OC(c2ccccc2)OC(=O)C1=Cc1ccc(O)cc1F` (stereo not given), for which, in test [1] (read-out: IC50), the IC50 stood at 3.76 µM.
For the compound `O=C1OC(c2ccccc2)OC(=O)C1=Cc1ccc(OCc2cccc(C(=O)O)c2)cc1` (stereo not given), the IC50 in test [1] (read-out: IC50) turned out to be 10 µM.
The same measure, in the same setting: the same measure for `O=C1OC(c2ccccc2)OC(=O)C1=Cc1cc(Br)c(O)c(Br)c1` (stereo not given): 0.7 µM.
Take `NC(=O)[C@@H]1CCCc2c1[nH]c1ccc(Cl)cc21`: the IC50 entry in test [3] and in test [4] was “Not Active” each time.
Regarding `O=C1OC(c2ccccc2)OC(=O)C1=Cc1cc(I)c(O)c(I)c1` (stereo not given), the IC50 in test [2] is 52.2 µM; in test [1] (read-out: IC50), 0.46 µM; in test [3] it was “Not Active”; in test [4] (read-out: IC50), 4.98 µM. The inhibition result in test [6] was “Dose-dependent effect”. In test [5], the “increase in acetylated p53 level” value was “Active”.
With `O=C1OC(c2ccccc2)OC(=O)C1=Cc1ccc(Cl)cc1` (stereo not given), the IC50 in test [1] (read-out: IC50) amounted to 18.8 µM.
Still for that read-out and setting: the same measure for `Nc1c(I)cc(C=C2C(=O)OC(c3ccccc3)OC2=O)cc1I` (stereo not given): 10.2 µM.
In the case of `CC1(c2ccccc2)OC(=O)C(=Cc2ccccc2)C(=O)O1` (stereo not given), the IC50 entry in test [1] was “Not Active”.
As for `CC(C)Oc1cccc(C=C2C(=O)OC(c3ccccc3)OC2=O)c1` (stereo not given), the IC50 in test [1] (read-out: IC50) was determined as 14 µM.
Same read-out and setting: the result for `O=C1OC(c2ccccc2)OC(=O)C1=Cc1ccc(O)c(F)c1` (stereo not given) reads 4.65 µM.
On the same count and under the same terms, the result for `O=C1OC(c2ccccc2)OC(=O)C1=Cc1ccc(O)cc1Br` (stereo not given) reads 3.56 µM.
On the same count and under the same terms, the result for `COc1cc(C=C2C(=O)OC(c3ccccc3)OC2=O)cc(OC)c1O` (stereo not given) reads 11.9 µM.
Consider `COc1cc(C=C2C(=O)OC(c3ccccc3)OC2=O)cc(C(=O)OCc2ccccc2)c1O` (stereo not given), for which, in test [1] (read-out: IC50), the half-inhibitory concentration (IC50) was 2.66 µM.
As to `CC1=C(/C=C/C(C)=C/C=C/C(C)=C/C(=O)O)C(C)(C)CCC1`, in test [7], the inhibition entry was “inactive”.
Turning to `COc1ccc(C=C2C(=O)OC(c3ccccc3)OC2=O)c(OC)c1OC` (stereo not given), the IC50 in test [1] (read-out: IC50) amounted to 15.8 µM.
Consider `COc1cc(C=C2C(=O)OC(c3ccccc3)OC2=O)cc(Cl)c1O` (stereo not given), for which the IC50 in test [1] (read-out: IC50) amounted to 1.9 µM. Moreover, in test [5], the “increase in acetylated p53 level” value was “Active”.
In the case of `COc1cc(C=C2C(=O)OC(c3ccccc3)OC2=O)cc(Cc2ccccc2)c1O` (stereo not given), the IC50 in test [1] (read-out: IC50) was determined as 2.47 µM.
The same measure, in the same setting: the result for `COc1ccccc1C=C1C(=O)OC(C)(c2ccccc2)OC1=O` (stereo not given) reads 14.4 µM; that for `COc1ccc(OC)c(C=C2C(=O)OC(C)(c3ccccc3)OC2=O)c1` (stereo not given), 16.8 µM; that for `O=C1OC(c2ccccc2)OC(=O)C1=Cc1ccc(O)c(OCC2CC2)c1` (stereo not given), 2.48 µM.
Still for that read-out and setting: the result for `O=C1OC(c2ccccc2)OC(=O)C1=Cc1ccc(O)c(Br)c1` (stereo not given) reads 1.4 µM; that for `CCOc1cc(C=C2C(=O)OC(c3ccccc3)OC2=O)cc(Br)c1O` (stereo not given), 1.14 µM; that for `COc1cc(C=C2C(=O)OC(c3ccccc3)OC2=O)cc([N+](=O)[O-])c1O` (stereo not given), 3.49 µM.
With `COc1cc(C=C2C(=O)OC(c3ccccc3)OC2=O)cc(I)c1O` (stereo not given), the IC50 was 49.4 µM in test [2], 0.89 µM in test [1] (read-out: IC50), “Not Active” in test [3] and 22.4 µM in test [4] (read-out: IC50). Besides, in test [5], the “increase in acetylated p53 level” value is “Active”.
In the case of `Nc1c(Br)cc(C=C2C(=O)OC(c3ccccc3)OC2=O)cc1Br` (stereo not given), in test [1] (read-out: IC50), the IC50 came out at 7.63 µM.
On the same count and under the same terms, the same measure for `CCOc1cc(C=C2C(=O)OC(C)(c3ccccc3)OC2=O)ccc1O` (stereo not given): 7.92 µM; for `Cc1cc(C=C2C(=O)OC(c3ccccc3)OC2=O)cc(C)c1O` (stereo not given): 3.07 µM; for `Cc1cc(C=C2C(=O)OC(c3ccccc3)OC2=O)c(C)cc1O` (stereo not given): 4.4 µM.
Same read-out and setting: the same measure for `Cc1cc(C=C2C(=O)OC(c3ccccc3)OC2=O)ccc1O` (stereo not given): 5.41 µM; for `COc1cc(C=C2C(=O)OC(C)(c3ccccc3)OC2=O)ccc1OCc1cccc(C(=O)O)c1` (stereo not given): 12.9 µM.
The same measure, in the same setting: the same measure for `CCc1cc(C=C2C(=O)OC(c3ccccc3)OC2=O)cc(CC)c1O` (stereo not given): 3.1 µM; for `O=C1OC(c2ccccc2)OC(=O)C1=Cc1cc(I)c(O)c(OCc2ccccc2)c1` (stereo not given): 0.61 µM; for `COc1cc(C=C2C(=O)OC(c3ccccc3)OC2=O)c(Br)cc1O` (stereo not given): 3.52 µM.
Regarding `CCOc1cc(C=C2C(=O)OC(c3ccccc3)OC2=O)cc([N+](=O)[O-])c1O` (stereo not given), the IC50 in test [1] (read-out: IC50) stood at 3.69 µM.
On the same count and under the same terms, the result for `COc1cc(C=C2C(=O)OC(c3ccccc3)OC2=O)ccc1OCc1ccc2c(c1)OCO2` (stereo not given) reads 8.14 µM; that for `COc1cc(OC)c(C=C2C(=O)OC(C)(c3ccccc3)OC2=O)cc1Br` (stereo not given), 13.6 µM; that for `CC1(c2ccccc2)OC(=O)C(=Cc2ccc(O)cc2)C(=O)O1` (stereo not given), 7.06 µM.
Regarding `O=C1OC(c2ccccc2)OC(=O)C1=Cc1ccc(O)c(OCc2ccccc2)c1` (stereo not given), the IC50 in test [1] (read-out: IC50) came out at 2.52 µM.
Still for that read-out and setting: the same measure for `O=C1OC(c2ccccc2)OC(=O)C1=Cc1cc(F)c(O)c(F)c1` (stereo not given): 4.54 µM; for `O=C1OC(c2ccccc2)OC(=O)C1=Cc1ccc(O)cc1` (stereo not given): 6.33 µM.
Still for that read-out and setting: the same measure for `CCOc1cc(C=C2C(=O)OC(c3ccccc3)OC2=O)ccc1O` (stereo not given): 5.49 µM.
